These results are taken from BindingDB's records for doi:10.7270/Q2PC30S2 (Nmmlsc, 2010).

In this assay the target is Ras-related C3 botulinum toxin substrate 1 (Mus musculus, UniProt P63001). Kind of assay: inhibitors of activated mutant Rac1 GTP binding, dose response, biochemical, multiplex, GST-Rac1 beads, Bodipy-FL-GTP, flow cytometry (AID 1339). On the technique in general: A flow cytometer gives signals particle by particle.

What is called EC50 is the concentration at which the effect is half-maximal.

`CNC(=S)N/N=C1\C(=O)Nc2ccccc21` [1-methyl-3-[(2-oxoindol-3-yl)amino]thiourea] had an EC50 of 91.6 µM.
`O=C1C([N+](=O)[O-])=Cc2oc3c(c2C1/C=N/Cc1ccccc1)CCCC3` (configuration not stated) [(1Z)-3-nitro-1-[[(phenylmethyl)amino]methylidene]-6,7,8,9-tetrahydrodibenzofuran-2-one] showed an EC50 of 5.79 µM.
